In patent publication US20160199535A1, “Controlled and Localized Release of Retinoids to Improve Neointimal Hyperplasia” (VesselTek BioMedical LLC, priority 2008, published 2016):
≈ marks a conversion by molar mass, not a printed value.

Tests used:
[1] = cited from earlier work
[2] = test system: human monocytic THP-1 cells; test: Assessment of inflammatory potential, marker expression via ELISA; type: cell-based; settings: THP-1 cell suspension exposed to material films, LPS positive control
Protocol: For assessment of inflammatory potential, a suspension of human monocytic THP-1 cells was exposed to POC, TCP, PLGA, and ePTFE films. Afterwards, the expression of tissue factor, IL-6, and TNF-α was measured via ELISA. Addition of lipopolysaccharide (LPS) to the cells was used as a positive control.

In the case of `CC1=C(/C=C/C(C)=C/C=C/C(C)=C/C(=O)O)C(C)(C)CCC1` [ATRA, All-trans retinoic acid], the “solubility in dimethylsulfoxide (DMSO)” value ([1]; DMSO) is given as “soluble”, the solubility in chloroform ([1]; chloroform) is given as “soluble” and the solubility in dichloromethane ([1]; dichloromethane) is given as “soluble”. The solubility in ethanol ([1]; ethanol) was 3000 µg/mL (≈ 9.99 mM) and the solubility in water ([1]; water) was “not readily soluble”.

Compound lipopolysaccharide [LPS] has a TNF-α expression [2] of 874 ± 531 and a Tissue factor expression [2] of 536 ± 81.
